≈ marks a conversion by molar mass, not a printed value.
Assays:
Type in all cases: functional
Streptococcus pyogenes [1] = assay: Antibacterial activity against erythromycin susceptible Streptococcus pyogenes 203
Streptococcus pneumoniae [2] = assay: Antibacterial activity against erythromycin susceptible Streptococcus pneumoniae 1016
Haemophilus influenzae [3] = assay: Antibacterial activity against Haemophilus influenzae 1100
Streptococcus pneumoniae [4] = assay: Antibacterial activity against erm containing Streptococcus pneumoniae 1095
Streptococcus pneumoniae [5] = assay: Antibacterial activity against mef containing Streptococcus pneumoniae 1175
Staphylococcus aureus [6] = assay: Antibacterial activity against erm containing Staphylococcus aureus 1117
Staphylococcus aureus [7] = assay: Antibacterial activity against erythromycin susceptible Staphylococcus aureus 0052
Streptococcus pyogenes [8] = assay: Antibacterial activity against erm containing Streptococcus pyogenes 1079
Staphylococcus aureus [9] = assay: Antibacterial activity against erythromycin susceptible Staphylococcus aureus 1146
Staphylococcus aureus [10] = assay: Antibacterial activity against erm containing Staphylococcus aureus 1095
Haemophilus influenzae [11] = assay: Antibacterial activity against Haemophilus influenzae 1218

| SMILES | MIC (Streptococcus pyogenes [1]) [µg/mL] | MIC (Streptococcus pneumoniae [2]) [µg/mL] | MIC (Haemophilus influenzae [3]) [µg/mL] | MIC (Streptococcus pneumoniae [4]) [µg/mL] | MIC (Streptococcus pneumoniae [5]) [µg/mL] | MIC (Staphylococcus aureus [6]) [µg/mL] | MIC (Staphylococcus aureus [7]) [µg/mL] | MIC (Streptococcus pyogenes [8]) [µg/mL] | MIC (Staphylococcus aureus [9]) [µg/mL] | MIC (Staphylococcus aureus [10]) [µg/mL] | MIC (Haemophilus influenzae [11]) [µg/mL] |
| --- | --- | --- | --- | --- | --- | --- | --- | --- | --- | --- | --- |
| C/C=C/CN1C(=O)N(CCCCn2cnc(-c3cccnc3)c2)[C@@H]2[C@@H](C)C(=O)[C@H](C)C[C@](C)(OC)[C@H](O[C@@H]3O[C@H](C)C[C@H](N(C)C)[C@H]3O)[C@@H](C)C(=O)[C@](C)(F)C(=O)O[C@H](CC)[C@]21C | 0.049 (≈ 0.0555 µM) | 0.05 (≈ 0.0566 µM) | 0.25 (≈ 0.283 µM) | 0.1 (≈ 0.113 µM) | 0.39 (≈ 0.442 µM) | 100 (≈ 113 µM) | 0.098 (≈ 0.111 µM) | 32 (≈ 36.2 µM) |  |  |  |
| CC[C@H]1OC(=O)[C@H](C)C(=O)[C@H](C)[C@@H](O[C@@H]2O[C@H](C)C[C@H](N(C)C)[C@H]2O)[C@@](C)(OC)C[C@@H](C)C(=O)[C@H](C)[C@H]2N(C/C=C/Cn3cnc(-c4cccnc4)c3)C(=O)N[C@]12C | 0.063 (≈ 0.0779 µM) | 0.063 (≈ 0.0779 µM) |  | 0.063 (≈ 0.0779 µM) | 4 (≈ 4.94 µM) |  |  | 32 (≈ 39.6 µM) | 0.25 (≈ 0.309 µM) | 64 (≈ 79.1 µM) | 2 (≈ 2.47 µM) |
| CC[C@H]1OC(=O)[C@@](C)(F)C(=O)[C@H](C)[C@@H](O[C@@H]2O[C@H](C)C[C@H](N(C)C)[C@H]2O)[C@@](C)(OC)C[C@@H](C)C(=O)[C@H](C)[C@H]2N(CCCCn3cnc(-c4cccnc4)c3)C(=O)N(C)[C@]12C | 0.024 (≈ 0.0285 µM) | 0.013 (≈ 0.0154 µM) | 2 (≈ 2.37 µM) | 0.025 (≈ 0.0297 µM) | 0.2 (≈ 0.237 µM) | 100 (≈ 119 µM) | 0.024 (≈ 0.0285 µM) | 8 (≈ 9.49 µM) |  |  |  |
| CC[C@H]1OC(=O)[C@@](C)(F)C(=O)[C@H](C)[C@@H](O[C@@H]2O[C@H](C)C[C@H](N(C)C)[C@H]2O)[C@@](C)(OC)C[C@@H](C)C(=O)[C@H](C)[C@H]2N(C/C=C/Cn3cnc4cccnc43)C(=O)N[C@]12C | 0.063 (≈ 0.0787 µM) | 0.063 (≈ 0.0787 µM) |  | 0.063 (≈ 0.0787 µM) | 0.25 (≈ 0.312 µM) |  |  | 2 (≈ 2.5 µM) | 0.063 (≈ 0.0787 µM) | 64 (≈ 79.9 µM) | 0.5 (≈ 0.624 µM) |
| CC[C@H]1OC(=O)[C@@](C)(F)C(=O)[C@H](C)[C@@H](O[C@@H]2O[C@H](C)C[C@H](N(C)C)[C@H]2O)[C@@](C)(OC)C[C@@H](C)C(=O)[C@H](C)[C@H]2N(C/C=C/Cn3cnc4cccnc43)C(=O)N(C)[C@]12C | 0.063 (≈ 0.0773 µM) | 0.063 (≈ 0.0773 µM) |  | 0.063 (≈ 0.0773 µM) | 0.13 (≈ 0.16 µM) |  |  | 2 (≈ 2.45 µM) | 0.063 (≈ 0.0773 µM) | 64 (≈ 78.5 µM) | 0.25 (≈ 0.307 µM) |
| C=CCN1C(=O)N(CCCCn2cnc(-c3cccnc3)c2)[C@@H]2[C@@H](C)C(=O)[C@H](C)C[C@](C)(OC)[C@H](O[C@@H]3O[C@H](C)C[C@H](N(C)C)[C@H]3O)[C@@H](C)C(=O)[C@](C)(F)C(=O)O[C@H](CC)[C@]21C | 0.012 (≈ 0.0138 µM) | 0.025 (≈ 0.0288 µM) | 0.5 (≈ 0.575 µM) | 0.05 (≈ 0.0575 µM) | 0.39 (≈ 0.449 µM) | 100 (≈ 115 µM) | 0.049 (≈ 0.0564 µM) | 64 (≈ 73.6 µM) |  |  |  |
| CC[C@H]1OC(=O)[C@H](C)C(=O)[C@H](C)[C@@H](O[C@@H]2O[C@H](C)C[C@H](N(C)C)[C@H]2O)[C@@](C)(OC)C[C@@H](C)C(=O)[C@H](C)[C@H]2N(CCCCn3cnc(-c4cccnc4)c3)C(=O)N[C@]12C | 0.024 (≈ 0.0296 µM) | 0.024 (≈ 0.0296 µM) | 8 (≈ 9.86 µM) | 0.049 (≈ 0.0604 µM) | 6.3 (≈ 7.77 µM) | 100 (≈ 123 µM) | 0.039 (≈ 0.0481 µM) | 32 (≈ 39.5 µM) |  |  |  |
| CC[C@H]1OC(=O)[C@@](C)(F)C(=O)[C@H](C)[C@@H](O[C@@H]2O[C@H](C)C[C@H](N(C)C)[C@H]2O)[C@@](C)(OC)C[C@@H](C)C(=O)[C@H](C)[C@H]2N(C/C=C/Cn3cnc(-c4cccnc4)c3)C(=O)N[C@]12C | 0.063 (≈ 0.0762 µM) | 0.063 (≈ 0.0762 µM) |  | 0.063 (≈ 0.0762 µM) | 0.25 (≈ 0.302 µM) |  |  | 4 (≈ 4.84 µM) | 0.063 (≈ 0.0762 µM) | 64 (≈ 77.4 µM) | 0.5 (≈ 0.605 µM) |
| CC[C@H]1OC(=O)[C@H](C)C(=O)[C@H](C)[C@@H](O[C@@H]2O[C@H](C)C[C@H](N(C)C)[C@H]2O)[C@@](C)(OC)C[C@@H](C)C(=O)[C@H](C)[C@H]2N(C/C=C/Cn3cnc4cccnc43)C(=O)N[C@]12C | 0.063 (≈ 0.0805 µM) | 0.063 (≈ 0.0805 µM) |  | 0.063 (≈ 0.0805 µM) | 1 (≈ 1.28 µM) |  |  | 16 (≈ 20.4 µM) | 0.13 (≈ 0.166 µM) | 64 (≈ 81.7 µM) | 1 (≈ 1.28 µM) |
| CC/C=C/CN1C(=O)N(CCCCn2cnc(-c3cccnc3)c2)[C@@H]2[C@@H](C)C(=O)[C@H](C)C[C@](C)(OC)[C@H](O[C@@H]3O[C@H](C)C[C@H](N(C)C)[C@H]3O)[C@@H](C)C(=O)[C@](C)(F)C(=O)O[C@H](CC)[C@]21C | 0.098 (≈ 0.109 µM) | 0.05 (≈ 0.0557 µM) | 0.5 (≈ 0.557 µM) | 0.1 (≈ 0.111 µM) | 0.78 (≈ 0.869 µM) | 100 (≈ 111 µM) | 0.098 (≈ 0.109 µM) | 64 (≈ 71.3 µM) |  |  |  |
| CC[C@H]1OC(=O)[C@@](C)(F)C(=O)[C@H](C)[C@@H](O[C@@H]2O[C@H](C)C[C@H](N(C)C)[C@H]2O)[C@@](C)(OC)C[C@@H](C)C(=O)[C@H](C)[C@H]2N(C/C=C/Cn3cnc(-c4cccnc4)c3)C(=O)N(C)[C@]12C | 0.063 (≈ 0.0749 µM) | 0.063 (≈ 0.0749 µM) |  | 0.063 (≈ 0.0749 µM) | 0.063 (≈ 0.0749 µM) |  |  | 4 (≈ 4.76 µM) | 0.063 (≈ 0.0749 µM) | 64 (≈ 76.1 µM) | 1 (≈ 1.19 µM) |
| CC[C@H]1OC(=O)[C@@](C)(F)C(=O)[C@H](C)[C@@H](O[C@@H]2O[C@H](C)C[C@H](N(C)C)[C@H]2O)[C@@](C)(OC)C[C@@H](C)C(=O)[C@H](C)[C@H]2N(CCCCn3cnc(-c4cccnc4)c3)C(=O)N(CC)[C@]12C | 0.024 (≈ 0.028 µM) | 0.013 (≈ 0.0152 µM) | 0.25 (≈ 0.292 µM) | 0.025 (≈ 0.0292 µM) | 0.39 (≈ 0.455 µM) | 100 (≈ 117 µM) | 0.049 (≈ 0.0572 µM) | 32 (≈ 37.3 µM) |  |  |  |
| CC[C@H]1OC(=O)[C@@](C)(F)C(=O)[C@H](C)[C@@H](O[C@@H]2O[C@H](C)C[C@H](N(C)C)[C@H]2O)[C@@](C)(OC)C[C@@H](C)C(=O)[C@H](C)[C@H]2N(CCCCn3cnc(-c4cccnc4)c3)C(=O)N[C@]12C | 0.006 (≈ 0.00724 µM) | 0.006 (≈ 0.00724 µM) | 2 (≈ 2.41 µM) | 0.012 (≈ 0.0145 µM) | 0.78 (≈ 0.941 µM) | 100 (≈ 121 µM) | 0.049 (≈ 0.0591 µM) | 4 (≈ 4.82 µM) |  |  |  |
| CC[C@H]1OC(=O)[C@H](C)C(=O)[C@H](C)[C@@H](O[C@@H]2O[C@H](C)C[C@H](N(C)C)[C@H]2O)[C@](C)(OC)C[C@@H](C)C(=O)[C@H](C)[C@H]2N(CCCCn3cnc(-c4cccnc4)c3)C(=O)O[C@]12C [TELITHROMYCIN] | 0.012 (≈ 0.0148 µM) | 0.013 (≈ 0.016 µM) | 0.5 (≈ 0.616 µM) | 0.05 (≈ 0.0616 µM) | 0.13 (≈ 0.16 µM) | 100 (≈ 123 µM) | 0.049 (≈ 0.0603 µM) | 32 (≈ 39.4 µM) | 0.063 (≈ 0.0776 µM) | 64 (≈ 78.8 µM) | 0.5 (≈ 0.616 µM) |

— ChEMBL document CHEMBL1149696, “Synthesis and antibacterial activity of C11, C12-cyclic urea analogues of ketolides” (2007)
